Columns and labels:
[1] = biological target: T1, Neuraminidase (Influenza A virus, UniProt B4URF0); set-up: species or system H7N1
[2] = biological target: T1, Neuraminidase; set-up: species or system H7N3

T1 sequence (B4URF0 whole entry): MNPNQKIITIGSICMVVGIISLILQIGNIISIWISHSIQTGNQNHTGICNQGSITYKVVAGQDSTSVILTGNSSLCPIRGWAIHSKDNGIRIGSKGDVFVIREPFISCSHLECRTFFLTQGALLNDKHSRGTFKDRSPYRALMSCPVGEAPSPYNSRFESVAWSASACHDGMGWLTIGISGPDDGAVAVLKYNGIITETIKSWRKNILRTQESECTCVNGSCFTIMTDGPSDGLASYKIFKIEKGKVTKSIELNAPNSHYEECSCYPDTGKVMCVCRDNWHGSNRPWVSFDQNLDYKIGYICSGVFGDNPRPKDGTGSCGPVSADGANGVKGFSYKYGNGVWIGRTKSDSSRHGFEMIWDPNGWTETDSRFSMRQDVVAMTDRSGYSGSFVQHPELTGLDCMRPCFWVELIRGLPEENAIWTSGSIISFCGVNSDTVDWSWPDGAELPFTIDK

C/C=C/C(=O)N[C@@H]1[C@@H](N=[N+]=[N-])CC(C(=O)O)=C[C@H]1OC(CC)CC
IC50 [1]: 51600 nM
IC50 [2]: 99300 nM

CCC(CC)O[C@@H]1C=C(C(=O)O)C[C@H](N=[N+]=[N-])[C@H]1NC(C)=O
IC50 [1]: 84.4 nM
IC50 [2]: 2.2 nM

C/C=C/C(=O)N[C@@H]1[C@@H](N)CC(C(=O)O)=C[C@H]1OC(CC)CC
IC50 [1]: 139000 nM
IC50 [2]: 4510 nM

C=CC(=O)N[C@@H]1[C@@H](N)CC(C(=O)O)=C[C@H]1OC(CC)CC
IC50 [1]: 31.8 nM
IC50 [2]: 0.1 nM

C=CC(=O)N[C@@H]1[C@@H](NCC(C)C)CC(C(=O)O)=C[C@H]1OC(CC)CC
IC50 [1]: 14.6 nM
IC50 [2]: 28.1 nM
